The results in this text go back to patent publication US12414952B2 (Merck Sharp & Dohme LLC, priority 2018, dated 2025).

Structures are written as SMILES.

The target of assay [1] is T1, human A2a adenosine receptor (Homo sapiens (Human), UniProt P29274). The experiment in a line: A2a binding affinity using SPA, Method (B). The note with it: Method (B): [3H]SCH58261 SPA. The text has this:
(§1) The A2a receptor affinity binding assay measured the amount of binding of a tritiated ligand with high affinity for the A2a adenosine receptor to membranes made from HEK293 or CHO cells recombinantly expressing the human A2a adenosine receptor, in the presence of varying concentrations of a compound of the invention. The data were generated using either filtration binding or a homogenous scintillation proximity assay (SPA).
Method (B): Measurement of A2a Binding Affinity Using SPA
Binding affinity using SPA was conducted as follows. Test compounds (50 nL) were dispensed into individual wells of a 384-well OptiPlate™ well (Perkin Elmer) by Echo® acoustic liquid transfer (Labcyte). 20 μL of 1.25 nM [^3H] SCH58261 ((7-(2-phenylethyl)-5-amino-2-(2-furyl)-pyrazolo-[4,3-e]-1,2,4-triazolo[1,5-c]pyrimidine)) in DPBS assay buffer (Dulbecco's phosphate buffered saline without calcium and magnesium, ThermoFisher Scientific, Cat. No. A1285601) supplemented with 10 mM MgCl2 was added. A2a receptor-expressing membranes were incubated with 20 μg/mL adenosine deaminase (Roche, Cat. No. 10 102 105 001) for 15 min at room temperature. The receptor-expressing membranes were then combined with wheat germ agglutinin-coated yttrium silicate SPA beads (GE Healthcare, Cat. No. RPNQ0023) in a ratio of 1:1000 (w/w) and incubated for 30 min at room temperature. 30 μL of the membrane/bead mixture (0.25 μg and 25 μg per well respectively) were added to the 384-well OptiPlate™ well. To define total and non-specific binding, wells containing 1% DMSO or 1 μM CGS15943 (Tocris Bioscience, Cat. No. 1699) respectively were also included in the experiment. The plate was incubated for one h at room temperature with agitation. The assay plate was then incubated for an h to allow the beads to settle before data were collected using a TopCount® (Perkin Elmer) scintillation counter. After normalization to total and non-specific binding, the percent effect at each compound concentration was calculated. The plot of percent effect versus the log of compound concentration was analyzed electronically using a 4-parameter logistic fit based on the Levenberg-Marquardt algorithm to generate IC50 values.

In assay [2] the target is T1, human A2a adenosine receptor. As to the kind of experiment: A2a binding affinity using an alternative radioligand binding assay, Method (C). The note with it: Method (C): [3H]CGS21680, CHO.A2a membranes.
From the text: as §1
Method (C): Measurement of A2a Binding Affinity Using an Alternative Radioligand Binding Assay
Membranes used in this procedure were made by washing cell cultures twice with DPBS buffer (Dulbecco's phosphate buffered saline without calcium and magnesium, ThermoFisher Scientific, Cat. No. A1285601), and harvesting the cell cultures by mechanical scraping. The cells were collected by centrifugation and re-suspended in 10 mM HEPES, pH 7.4 containing 0.1 mM benzamidine (Sigma, Cat. No. B6506) and 0.1 mM PMSF (phenylmethylsulfonyl fluoride, Sigma, Cat. No. 10837091001). Cells were freeze-thawed twice in a dry ice/ethanol bath and homogenized with 25 to 30 strokes in a glass dounce homogenizer (Wheaton, Cat. No. 357546). Membranes were pelleted at 40,000×g for 20 min at 4° C. and re-suspended in assay buffer (5 mM HEPES, pH 7.4, 5 mM MgCl2; supplemented with 0.1 mM benzamidine) at a protein concentration of 2.6 mg/mL. Protein concentration was determined by the Bio-Rad method (Bio-Rad, Cat. No. 5000002). Membranes were then incubated with adenosine deaminase (final concentration 2U/mL) for 20 min at 37° C. before use in the binding assay.
To perform the binding assay, 50 μg CHO.A2a membranes, 5 nM [^3H]CGS21680 (Perkin Elmer, Cat. No. NET1021), and 1 μL of test compound were combined in individual tubes to a volume of 100 μL. To define total and non-specific binding, wells containing 1% DMSO and 20 μM N-ethylcarboxamidoadenosine (Tocris Bioscience, Cat. No. 1691) respectively, were also included. The samples were incubated for 2 h at 37° C. The samples were filtered rapidly through a glass fiber filter using a cell harvester and washed with cold buffer (10 mM Tris, pH7.4, 5 mM MgCl2). The filter was allowed to dry and individual filters were placed into vials together with liquid scintillant and subjected to scintillation counting. After normalization to total and non-specific binding, the percent effect at each compound concentration was calculated. The plot of percent effect versus the log of compound concentration was analyzed electronically using a 4-parameter logistic fit based on the Levenberg-Marquardt algorithm to generate IC50 values.

For assay [3] the target is unchanged. The experiment in a line: A2a binding affinity using radioligand binding, Method (A). As to conditions: Method (A): [3H]SCH58261 filtration binding. In outline:
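Membranes from HEK293 or CHO cells expressing human A2a were preincubated with compound for 15–30 min at room temperature. [3H]SCH58261 was then added (4 nM working dilution) in 50 mM Tris pH 7.4, 10 mM MgCl2, 0.005% Tween20 for 60 min at room temperature. Bound radioactivity after filtration was normalised to total and non-specific binding, and IC50 came from 4-parameter logistic fits.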

Assay [4] has as its target human A2b adenosine receptor (Homo sapiens (Human), UniProt P29275). As to the kind of experiment: A2b binding affinity, radioligand filtration binding assay. As to conditions: tritiated proprietary A2b antagonist, HEK293 membranes. In outline: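 Membranes from HEK293 cells recombinantly expressing human A2b were incubated with a tritiated proprietary A2b antagonist, with and without compound. Filter-bound radioactivity was counted by scintillation. Percent effect was normalized to total and non-specific binding, and IC50 came from a 4-parameter logistic fit.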

T1 sequence (P29274 whole entry): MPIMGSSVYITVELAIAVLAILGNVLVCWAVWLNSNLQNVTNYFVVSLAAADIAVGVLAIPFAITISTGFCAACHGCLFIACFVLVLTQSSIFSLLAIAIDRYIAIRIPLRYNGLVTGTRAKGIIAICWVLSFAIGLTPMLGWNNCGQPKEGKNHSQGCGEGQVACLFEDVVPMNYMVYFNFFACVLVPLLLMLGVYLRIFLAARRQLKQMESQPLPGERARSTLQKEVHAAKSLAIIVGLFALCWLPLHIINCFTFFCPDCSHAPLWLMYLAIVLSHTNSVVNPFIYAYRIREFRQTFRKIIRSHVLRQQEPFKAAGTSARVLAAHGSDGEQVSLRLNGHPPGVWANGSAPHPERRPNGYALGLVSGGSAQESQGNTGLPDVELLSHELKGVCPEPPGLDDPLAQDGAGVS
Chain of human A2b adenosine receptor (P29275 whole entry): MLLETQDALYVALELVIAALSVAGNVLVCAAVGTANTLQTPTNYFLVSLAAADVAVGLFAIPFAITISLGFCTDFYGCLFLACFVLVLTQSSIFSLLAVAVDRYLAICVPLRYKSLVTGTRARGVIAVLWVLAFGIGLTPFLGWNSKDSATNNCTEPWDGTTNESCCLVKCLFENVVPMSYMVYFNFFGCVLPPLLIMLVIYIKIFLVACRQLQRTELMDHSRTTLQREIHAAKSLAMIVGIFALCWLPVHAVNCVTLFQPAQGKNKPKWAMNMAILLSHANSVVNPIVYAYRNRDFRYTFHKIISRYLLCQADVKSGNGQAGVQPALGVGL

In general, IC50 refers to the point on the concentration scale where inhibition reaches its midpoint. Take `Cc1nc2c(s1)CN(CCc1nc3c(C)c(-c4ncco4)nc(N)n3n1)CC2` [Example 1.8]: the 50% inhibitory concentration (IC50) in assay [1] was found to be 2.4 nM. This lies in the single-digit nanomolar range.
In the case of `COc1ccccc1-c1cc2nc(CCN3CC(F)(F)C3)nn2c(N)n1` [Example 2.18], the IC50 in assay [2] came to 668 nM.
The same measure, in the same setting: under `COc1cccc(-c2cc3nc(CCN4CC(F)(F)C4)nn3c(N)n2)c1` [Example 2.19] stands 389 nM; under `Nc1nc(-c2ccccc2F)cc2nc(CCN3CC(F)(F)C3)nn12` [Example 2.20], 241 nM.
On to `Cc1nc2c(s1)CN(CCc1nc3c(C)c(-c4cnco4)nc(N)n3n1)CC2` [Example 2.26], for which the concentration for half-maximal inhibition (IC50) in assay [1] was 6.6 nM.
On the same count and under the same terms, under `Cc1c(-c2ncco2)nc(N)n2nc(Cc3cc[nH]n3)nc12` [Example 7.5, 2-((1H-pyrazol-3-yl)methyl)-8-methyl-7-(oxazol-2-yl)-[1,2,4]triazolo[1,5-c]pyrimidin-5-amine] stands 4.7 nM; under `Cc1c(-c2ncco2)nc(N)n2nc(Cc3ccccn3)nc12` [Example 9.6, 8-methyl-7-(oxazol-2-yl)-2-(pyridin-2-ylmethyl)-[1,2,4]triazolo[1,5-c]pyrimidin-5-amine], 0.7 nM.
On the same count and under the same terms, under `Cc1cccc(Cc2nc3c(C)c(-c4ncco4)nc(N)n3n2)n1` [Example 9.7, 8-methyl-2-((6-methylpyridin-2-yl)methyl)-7-(oxazol-2-yl)-[1,2,4]triazolo[1,5-c]pyrimidin-5-amine] stands 0.5 nM.
On to `Cc1cccnc1Cc1nc2c(C)c(-c3ncco3)nc(N)n2n1` [Example 9.8, 8-methyl-2-((3-methylpyridin-2-yl)methyl)-7-(oxazol-2-yl)-[1,2,4]triazolo[1,5-c]pyrimidin-5-amine], for which, in assay [1], the IC50 was determined as 0.6 nM.
In the case of `Cc1c(-c2ncco2)nc(N)n2nc(CCN3CCn4c(cnc4C45CC(C4)C5)C3)nc12` [Example 17.7, 2-(2-(3-(bicyclo[1.1.1]pentan-1-yl)-5,6-dihydroimidazo[1,5-a]pyrazin-7(8H)-yl)ethyl)-8-methyl-7-(oxazol-2-yl)-[1,2,4]triazolo[1,5-c]pyrimidin-5-amine], the 50% inhibitory concentration (IC50) was 0.6 nM in assay [3] and 17.8 nM in assay [4].
On the same counts, the results for `Cc1c(-c2ncco2)nc(N)n2nc(CCN3CCc4nn(C5CC(F)(F)C5)cc4C3)nc12` [Example 17.9, 2-(2-(2-(3,3-difluorocyclobutyl)-2,4,6,7-tetrahydro-5H-pyrazolo[4,3-c]pyridin-5-yl)ethyl)-8-methyl-7-(oxazol-2-yl)-[1,2,4]triazolo[1,5-c]pyrimidin-5-amine] are 4.1 nM and 97 nM.
Take `Cc1c(-c2ncco2)nc(N)n2nc(CCN3CCc4c(cnn4C4CC(F)(F)C4)C3)nc12` [Example 17.10, 2-(2-(1-(3,3-difluorocyclobutyl)-1,4,6,7-tetrahydro-5H-pyrazolo[4,3-c]pyridin-5-yl)ethyl)-8-methyl-7-(oxazol-2-yl)-[1,2,4]triazolo[1,5-c]pyrimidin-5-amine]: the IC50 in assay [3] worked out at 0.6 nM; in assay [4], 20.6 nM.
On the same counts, the results for `Cc1c(-c2ncco2)nc(N)n2nc(CCN3CCc4nn(C5CCCC5)cc4C3)nc12` [Example 17.11, 2-(2-(2-cyclopentyl-2,4,6,7-tetrahydro-5H-pyrazolo[4,3-c]pyridin-5-yl)ethyl)-8-methyl-7-(oxazol-2-yl)-[1,2,4]triazolo[1,5-c]pyrimidin-5-amine] are 1.3 nM and 301 nM.
In the case of `Cc1c(-c2ncco2)nc(N)n2nc(CCN3CCc4c(cnn4C4CCCC4)C3)nc12` [Example 17.12, 2-(2-(1-cyclopentyl-1,4,6,7-tetrahydro-5H-pyrazolo[4,3-c]pyridin-5-yl)ethyl)-8-methyl-7-(oxazol-2-yl)-[1,2,4]triazolo[1,5-c]pyrimidin-5-amine], the concentration for half-maximal inhibition (IC50) in assay [3] stood at 1.2 nM; in assay [4], 45 nM.
On the same counts, the results for `Cc1c(-c2ncco2)nc(N)n2nc(CCN3CCc4c(nnn4C4CCCC4)C3)nc12` [Example 17.13, 2-(2-(1-cyclopentyl-1,4,6,7-tetrahydro-5H-[1,2,3]triazolo[4,5-c]pyridin-5-yl)ethyl)-8-methyl-7-(oxazol-2-yl)-[1,2,4]triazolo[1,5-c]pyrimidin-5-amine] are 0.7 nM and 8.1 nM.
In the same order, the values of `Cc1c(-c2ncco2)nc(N)n2nc(CCN3CCc4c(nnn4C4CC(F)(F)C4)C3)nc12` [Example 17.14, 2-(2-(1-(3,3-difluorocyclobutyl)-1,4,6,7-tetrahydro-5H-[1,2,3]triazolo[4,5-c]pyridin-5-yl)ethyl)-8-methyl-7-(oxazol-2-yl)-[1,2,4]triazolo[1,5-c]pyrimidin-5-amine] are 0.5 nM and 41.7 nM.
On the same counts, the results for `Cc1c(-c2ncco2)nc(N)n2nc(CCN3CCc4c(nnn4C45CC(C4)C5)C3)nc12` [Example 17.15, 2-(2-(1-(bicyclo[1.1.1]pentan-1-yl)-1,4,6,7-tetrahydro-5H-[1,2,3]triazolo[4,5-c]pyridin-5-yl)ethyl)-8-methyl-7-(oxazol-2-yl)-[1,2,4]triazolo[1,5-c]pyrimidin-5-amine] are 2.2 nM and 32 nM.
As to `Cc1c(-c2ncco2)nc(N)n2nc(CCN3CCCC(F)(F)C3)nc12` [Example 17.16, 2-(2-(3,3-difluoropiperidin-1-yl)ethyl)-8-methyl-7-(oxazol-2-yl)-[1,2,4]triazolo[1,5-c]pyrimidin-5-amine], the IC50 in assay [3] is 1.2 nM; in assay [4], 1100 nM.
In the same order, the values of `CCOC(=O)c1cnn(CCc2nc3c(C)c(-c4ncco4)nc(N)n3n2)c1` [Example 17.17, ethyl 1-(2-(5-amino-8-methyl-7-(oxazol-2-yl)-[1,2,4]triazolo[1,5-c]pyrimidin-2-yl)ethyl)-1H-pyrazole-4-carboxylate] are 34.9 nM and 9670 nM.
On the same counts, the results for `Nc1nc(-c2cc(F)ccc2F)c(C2CC2)n2nc(Cc3ccccc3)nc12` [Example 20.5, 2-benzyl-5-cyclopropyl-6-(2,5-difluorophenyl)-[1,2,4]triazolo[1,5-a]pyrazin-8-amine] are 13.5 nM and 117 nM.
On the same counts, the results for `CC(C)n1nnc2c1CCN(CCc1nc3c(C(F)(F)F)c(-c4cccc(F)c4)nc(N)n3n1)C2` [Example 23.7, 7-(3-fluorophenyl)-2-(2-(1-isopropyl-1,4,6,7-tetrahydro-5H-[1,2,3]triazolo[4,5-c]pyridin-5-yl)ethyl)-8-(trifluoromethyl)-[1,2,4]triazolo[1,5-c]pyrimidin-5-amine] are 0.9 nM and 52.8 nM.
